Test results taken from patent US20190069549A1, “HERBICIDAL COMPOSITIONS CONTAINING PYRIDINE CARBOXYLIC ACIDS OR DERIVATIVES THEREOF, WITH GLYPHOSATE OR GLUFOSINATE, OR DERIVATIVES THEREOF” (Dow AgroSciences LLC, priority 2017, published 2019).

Columns and labels:
Assay in all cases: Postemergence herbicidal activity, greenhouse trial (visual injury)
Type in all cases: in vivo
[1] = test system: Triticum aestivum (winter wheat), TRZAW; settings: 20-22 d
Experimental: (§1) Seeds of the desired test plant species were planted in Sun Gro MetroMix® 360 planting mixture, which typically has a pH of 6.0 to 6.8 and an organic matter content of about 30 percent, in plastic pots with a surface area of 103.2 square centimeters (cm^2). When required to ensure good germination and healthy plants, a fungicide treatment and/or other chemical or physical treatment was applied. The plants were grown for 7-36 days (d) in a greenhouse with an approximate 14-hour (h) photoperiod which was maintained at about 23° C. during the day and 22° C. during the night. Nutrients and water were added on a regular basis and supplemental lighting was provided with overhead metal halide 1000-Watt lamps as necessary. The plants were employed for testing when they reached the second or third true leaf stage.
(§2) Weighed amounts of technical material were dissolved in a volume of 97:3 volume per volume (v/v) acetone/dimethyl sulfoxide (DMSO) to make stock solutions. […] The concentrated stock solutions were diluted with an aqueous mixture of 1.5% v/v of Agri-dex crop oil concentrate to provide the appropriate application rates. Compound requirements are based upon a 12 milliliter (mL) application volume at a rate of 187 liters per hectare (L/ha). Spray solutions of the experimental compound mixtures were prepared by adding the stock solutions to the appropriate amount of dilution solution to form a 12 mL spray solution in two-way combinations. Formulated compounds were applied to the plant material with an overhead Mandel track sprayer equipped with 8002E nozzles calibrated to deliver 187 L/ha over an application area of 0.503 square meters (m^2) at a spray height of 18 inches (43 centimeters (cm)) above average plant canopy. Control plants were sprayed in the same manner with the solvent blank. Application rates for component (a) are in g ae/ha, and application rates for component (b) are in g ai/ha.
(§3) The treated plants and control plants were placed in a greenhouse as described above and watered by sub-irrigation to prevent wash-off of the test compounds. After 20-22 d, the condition of the test plants as compared with that of the control plants was determined visually and scored on a scale of 0 to 100 percent where 0 corresponds to no injury and 100 corresponds to complete kill. The condition of the test plants was compared with that of the control plants as determined visually and scored on a scale of 0 to 100 percent, where 0 corresponds to no injury and 100 corresponds to complete kill. Colby' s equation was used to determine the herbicidal effects expected from the mixtures.
(§4) Compound 1 was formulated as an EC and was combined with glyphosate or glufosinate and applied to weeds, and the phytotoxicity of the herbicidal composition was measured.

[2] = test system: Cirsium arvense (thistle), CIRAR; settings: 20-22 d
Experimental: as §1, §2, §3, §4

[3] = test system: Brassica juncea (brown mustard), BRSJU; settings: 5 g ae/ha alone, 20-22 d, Table 2
Experimental: as §1, §2, §3, §4

[4] = test system: Brassica napus (spring rape; Roundup Ready), BRSNN-RR; settings: 5 g ae/ha alone, 20-22 d, Table 2
Experimental: as §1, §2, §3, §4

[5] = test system: Brassica napus (winter rape), BRSNW; settings: 20-22 d
Experimental: as §1, §2, §3, §4

[6] = test system: Digitaria sanguinalis (large crabgrass), DIGSA; settings: 20-22 d
Experimental: as §1, §2, §3, §4

[7] = test system: Polygonum convolvulus (wild buckwheat), POLCO; settings: 20-22 d
Experimental: as §1, §2, §3, §4

[8] = test system: Brassica alboglabra (chinese kale), BRSAG; settings: 5 g ae/ha alone, 20-22 d, Table 2
Experimental: as §1, §2, §3, §4

[9] = test system: Brassica rapa (turnip), BRSRR; settings: 20-22 d
Experimental: as §1, §2, §3, §4

[10] = test system: Zea mays (maize/corn), ZEAMX; settings: 20-22 d
Experimental: as §1, §2, §3, §4

[11] = test system: Viola tricolor (wild pansy), VIOTR; settings: 20-22 d
Experimental: as §1, §2, §3, §4

[12] = test system: Abutilon theophrasti (velvetleaf), ABUTH; settings: 20-22 d
Experimental: as §1, §2, §3, §4

[13] = test system: Helianthus annuus (sunflower), HELAN; settings: 20-22 d
Experimental: as §1, §2, §3, §4

Nc1c(F)c(-c2ccc3cc[nH]c3c2F)nc(C(=O)O)c1Cl [Compound 1]
% Visual Injury ([1]; 5 g ae/ha alone, Table 1): 5%
% Visual Injury ([1]; 5 g ae/ha alone, Table 2): 5%
% Visual Injury ([2]; 5 g ae/ha alone, Table 1): 10%
% Visual Injury ([2]; 5 g ae/ha alone, Table 2): 10%
% Visual Injury [3]: 60%
% Visual Injury [4]: 35%
% Visual Injury ([5]; BRSNW* (retest), 5 g ae/ha alone, Table 1): 50%
% Visual Injury ([5]; BRSNW* (retest), 5 g ae/ha alone, Table 2): 30%
% Visual Injury ([5]; BRSNW, 5 g ae/ha alone, Table 1): 30%
% Visual Injury ([5]; BRSNW, 5 g ae/ha alone, Table 2): 50%
% Visual Injury ([6]; 5 g ae/ha alone, Table 1): 5%
% Visual Injury ([6]; 5 g ae/ha alone, Table 2): 5%
% Visual Injury ([7]; 5 g ae/ha alone, Table 1): 65%
% Visual Injury ([7]; 5 g ae/ha alone, Table 2): 65%
% Visual Injury [8]: 15%
% Visual Injury ([9]; 5 g ae/ha alone, Table 1): 50%
% Visual Injury ([9]; 5 g ae/ha alone, Table 2): 50%
% Visual Injury ([10]; 5 g ae/ha alone, Table 1): 0%
% Visual Injury ([10]; 5 g ae/ha alone, Table 2): 0%
% Visual Injury ([11]; 5 g ae/ha alone, Table 1): 5%
% Visual Injury ([11]; 5 g ae/ha alone, Table 2): 5%
% Visual Injury ([12]; 5 g ae/ha alone, Table 1): 60%
% Visual Injury ([12]; 5 g ae/ha alone, Table 2): 60%
% Visual Injury ([13]; 5 g ae/ha alone, Table 1): 70%
% Visual Injury ([13]; 5 g ae/ha alone, Table 2): 70%

O=C(O)CNCP(=O)(O)O [Glyphosate, N-(phosphonomethyl)glycine]
% Visual Injury ([1]; 210 g ai/ha alone, Table 1): 75%
% Visual Injury ([2]; 210 g ai/ha alone, Table 1): 25%
% Visual Injury ([5]; BRSNW* (retest), 210 g ai/ha alone, Table 1): 30%
% Visual Injury ([5]; BRSNW, 210 g ai/ha alone, Table 1): 20%
% Visual Injury ([6]; 210 g ai/ha alone, Table 1): 70%
% Visual Injury ([7]; 210 g ai/ha alone, Table 1): 45%
% Visual Injury ([9]; 210 g ai/ha alone, Table 1): 65%
% Visual Injury ([10]; 210 g ai/ha alone, Table 1): 0%
% Visual Injury ([11]; 210 g ai/ha alone, Table 1): 50%
% Visual Injury ([12]; 210 g ai/ha alone, Table 1): 60%
% Visual Injury ([13]; 210 g ai/ha alone, Table 1): 65%
